Source: PMC6321233, “Cysteines and Disulfide-Bridged Macrocyclic Mimics of Teixobactin Analogues and Their Antibacterial Activity Evaluation against Methicillin-Resistant Staphylococcus Aureus (MRSA)” (Pharmaceutics, 2018)
Values after ≈ are worked out from the molar mass of the structure shown. Like-named read-outs stand apart in the source and are kept apart here.

Tests used:
S. aureus ATCC 29213 [1] = test: MIC, broth microdilution, Methicillin-sensitive S. aureus ATCC 29213; format: cell-based, Staphylococcus aureus; conditions: Mueller Hinton broth, 37 °C, 24 h, peptides in DMSO with 0.002% polysorbate 80, 128-0.25 µg/mL two-fold dilutions, no visible growth, runs in triplicate
Description: (§1) For minimum inhibitory concentration (MIC) assays, all peptides were dissolved in DMSO containing 0.002% polysorbate 80. Bacteria was grown in Mueller Hinton broth (Oxoid) in triplicate. All incubations were at 37 °C. Dilutions were carried out in triplicate, and 100 µL of autoclaved Mueller Hinton broth was added to wells 2–11 in a 96-well plate. 200 µL of the peptide was added to well one at a concentration of 128 µg/mL. 100 µL of peptide in well one was taken up and pipetted into well two. The mixture was then mixed via pipetting before 100 µL was taken up and pipetted into well three. This process was repeated up to well 10. Once the peptide was added to well 10, 100 µL was taken up and then discarded, ensuring that well 11 had no peptide present. Thus, the concentrations (in µg/mL) were: 128, 64, 32, 16, 8, 4, 2, 1, 0.5, 0.25, and 0 (no peptide present). Each well was then inoculated with 100 µL of bacteria that had been diluted to an OD 600 nm of 0.1. This was repeated three times. The 96-well plates were then incubated at 37 °C for 24 h. […]
(§2) Antibacterial activity of the teixobactin analogues was assessed against Methicillin-resistant Staphylococcus aureus (MRSA ATCC 33591, MRSA ATCC […]) and Methicillin-sensitive Staphylococcus aureus. The minimum inhibitory concentration was measured using the broth microdiluation method (see Experimental Section 2.4). […]

MRSA ATCC 700699 [2] = test: MIC, broth microdilution, MRSA ATCC 700699; format: cell-based, Staphylococcus aureus; conditions: Mueller Hinton broth, 37 °C, 24 h, peptides in DMSO with 0.002% polysorbate 80, 128-0.25 µg/mL two-fold dilutions, lowest concentration with no visible growth, runs in triplicate
Description: as §1, §2

MRSA = conditions: introduction, strain not named; cited from earlier work
Text: Brimble et al. have also reported on the synthesis and antibacterial activity of teixobactin analogues by replacing L-allo-enduracididine with isosteres. Furthermore, teixobactin analogues with lipid tails were reported by Jamieson et al ...

MRSA ATCC 33591 = conditions: reference peptides marked with superscript 12 in Table 1; cited from earlier work
Text: MIC: Minimum Inhibitory Concentration in µg/mL; all the MIC runs in triplicate. (-) = Not evaluated. | column: MRSA ATCC 33591

S. aureus ATCC 29213 [3] = conditions: reference peptide marked with superscript 12 in Table 1; cited from earlier work
Text: MIC: Minimum Inhibitory Concentration in µg/mL; all the MIC runs in triplicate. (-) = Not evaluated. | column: S. aureus ATCC 29213

MRSA ATCC 700699 [4] = conditions: reference peptide marked with superscript 12 in Table 1; cited from earlier work
Text: MIC: Minimum Inhibitory Concentration in µg/mL; all the MIC runs in triplicate. (-) = Not evaluated. | column: MRSA ATCC 700699

Compound | activity against MRSA compared with teixobactin (in words) (MRSA) | MIC: Minimum Inhibitory Concentration, MRSA ATCC 33591 (MRSA ATCC 33591) [µg/mL] | further results
CN[C@H](CC(C)C)C(=O)N[C@H]1C(=O)N[C@@H](CC(N)=O)C(=O)N[C@H]2C(=O)N[C@H]3C(=O)N[C@H](C(=O)N[C@H](C(=O)O)c4cc(O)cc(O)c4-c4cc3ccc4O)[C@H](O)c3ccc(c(Cl)c3)Oc3cc2cc(c3O[C@@H]2O[C@H](CO)[C@@H](O)[C@H](O)[C@H]2O[C@H]2C[C@](C)(N)[C@H](O)[C@H](C)O2)Oc2ccc(cc2Cl)[C@H]1O [Vancomycin] |  |  | MIC: Minimum Inhibitory Concentration, S. aureus ATCC 29213 (S. aureus ATCC 29213 [1]): 4 µg/mL (≈ 2.76 µM); MIC: Minimum Inhibitory Concentration, MRSA ATCC 700699 (MRSA ATCC 700699 [2]): 2 µg/mL (≈ 1.38 µM)
Ile10-teixobactin | to the same extent as teixobactin |  | 
Leu10-teixobactin | to the same extent as teixobactin | 0.25 | MIC: Minimum Inhibitory Concentration, S. aureus ATCC 29213 (S. aureus ATCC 29213 [3]): 0.062 µg/mL; MIC: Minimum Inhibitory Concentration, MRSA ATCC 700699 (MRSA ATCC 700699 [4]): 0.25 µg/mL
Teixobactin |  | 0.25 | 
